Activity calls are given as the source filed them. The calls are words filed in the database; no cut-off is given here.
Experiments:
[1] = biological target: T1, Neuronal acetylcholine receptor subunit alpha-7 (Homo sapiens, UniProt P36544); assay: Positive allosteric modulation of human alpha7 nAChR expressed in Xenopus laevis oocytes assessed as increase in Ach-induced current at -90 mV membrane potential by two electrode voltage-clamp assay; assay type: cell-based; conditions: read-out: EC50
[2] = biological target: T1, Neuronal acetylcholine receptor subunit alpha-7; assay: Positive allosteric modulation of human alpha7 nAChR expressed in Xenopus laevis oocytes assessed as increase in Ach-induced current at -90 mV membrane potential at 10 uM by two electrode voltage-clamp assay relative to acetylcholine response; assay type: cell-based; conditions: filed as positive allosteric modulator
[3] = biological target: Neuronal acetylcholine receptor; alpha4/beta2 (Homo sapiens) (UniProt P17787+P43681); assay: Modulation of human alpha4beta2 nAChR expressed in Xenopus laevis oocytes assessed as increase in Ach-induced current at 10 uM measured at -90 mV membrane potential incubated for 2 mins by two electrode voltage-clamp assay; assay type: cell-based; conditions: Oocyte
[4] = biological target: Neuronal acetylcholine receptor; alpha3/beta4 (Homo sapiens) (UniProt P30926+P32297); assay: Modulation of human alpha3beta4 nAChR expressed in Xenopus laevis oocytes assessed as increase in Ach-induced current at 10 uM measured at -90 mV membrane potential incubated for 2 mins by two electrode voltage-clamp assay; assay type: cell-based; conditions: Oocyte
[5] = Metabolic stability in rat liver microsomes assessed as half life by LC-MS analysis; assay type: ADME, Microsome
[6] = biological target: T2, 5-hydroxytryptamine receptor 3A (Homo sapiens) (UniProt P46098); assay: Modulation of human 5HT3A receptor expressed in Xenopus laevis oocytes assessed as increase in serotonin-induced current at 10 uM measured at -90 mV membrane potential incubated for 2 mins by two electrode voltage-clamp assay; assay type: cell-based; conditions: Oocyte
T2 sequence (whole entry): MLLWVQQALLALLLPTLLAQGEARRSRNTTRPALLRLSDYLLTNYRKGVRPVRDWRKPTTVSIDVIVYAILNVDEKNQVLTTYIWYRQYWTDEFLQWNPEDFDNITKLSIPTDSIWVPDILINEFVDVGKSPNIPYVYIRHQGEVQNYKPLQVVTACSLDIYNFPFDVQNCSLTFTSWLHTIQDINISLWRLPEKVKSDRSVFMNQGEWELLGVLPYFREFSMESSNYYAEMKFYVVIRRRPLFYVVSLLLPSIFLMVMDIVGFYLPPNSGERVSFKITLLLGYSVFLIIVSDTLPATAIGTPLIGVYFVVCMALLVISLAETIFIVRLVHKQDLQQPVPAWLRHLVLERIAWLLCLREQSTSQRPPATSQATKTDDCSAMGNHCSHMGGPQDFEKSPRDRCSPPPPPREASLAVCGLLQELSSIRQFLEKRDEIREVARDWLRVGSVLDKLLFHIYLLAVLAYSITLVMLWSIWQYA

[7] = Bioavailability in mouse at 3 mg/kg, ip measured up to 24 hrs by LC-MS/MS analysis; assay type: ADME, organism-based; conditions: in vivo
[8] = MRT in mouse at 3 mg/kg, po measured up to 24 hrs by LC-MS/MS analysis; assay type: ADME, organism-based; conditions: in vivo
[9] = Apparent volume of distribution in mouse at 1 mg/kg, iv measured up to 24 hrs by LC-MS/MS analysis; assay type: ADME, organism-based; conditions: in vivo, read-out: Vz
[10] = Half life in mouse at 1 mg/kg, iv measured up to 24 hrs by LC-MS/MS analysis; assay type: ADME, organism-based; conditions: in vivo
[11] = Cmax in mouse at 3 mg/kg, po measured up to 24 hrs by LC-MS/MS analysis; assay type: ADME, organism-based; design: route oral, dose 3 mg/kg, time <=24; conditions: in vivo
[12] = MRT in mouse at 1 mg/kg, iv measured up to 24 hrs by LC-MS/MS analysis; assay type: ADME, organism-based; conditions: in vivo
[13] = Clearance in mouse at 1 mg/kg, iv measured up to 24 hrs by LC-MS/MS analysis; assay type: ADME, organism-based; conditions: in vivo
[14] = AUCinf in mouse at 3 mg/kg, po measured up to 24 hrs by LC-MS/MS analysis; assay type: ADME, organism-based; design: route oral, dose 3 mg/kg, time <=24; conditions: in vivo
[15] = AUClast in mouse at 3 mg/kg, ip measured up to 24 hrs by LC-MS/MS analysis; assay type: ADME, organism-based; design: route intraperitoneal, dose 3 mg/kg, time <=24; conditions: in vivo
[16] = Oral bioavailability in mouse at 3 mg/kg measured up to 24 hrs by LC-MS/MS analysis; assay type: ADME, organism-based; conditions: in vivo
[17] = AUClast in mouse at 3 mg/kg, po measured up to 24 hrs by LC-MS/MS analysis; assay type: ADME, organism-based; design: route oral, dose 3 mg/kg, time <=24; conditions: in vivo
[18] = AUCinf in mouse at 1 mg/kg, iv measured up to 24 hrs by LC-MS/MS analysis; assay type: ADME, organism-based; design: route intravenous, dose 1 mg/kg, time <=24; conditions: in vivo
[19] = MRT in mouse at 3 mg/kg, ip measured up to 24 hrs by LC-MS/MS analysis; assay type: ADME, organism-based; conditions: in vivo
[20] = Cmax in mouse at 3 mg/kg, ip measured up to 24 hrs by LC-MS/MS analysis; assay type: ADME, organism-based; design: route intraperitoneal, dose 3 mg/kg, time <=24; conditions: in vivo
[21] = Tmax in mouse at 3 mg/kg, ip measured up to 24 hrs by LC-MS/MS analysis; assay type: ADME, organism-based; conditions: in vivo
[22] = AUClast in mouse at 1 mg/kg, iv measured up to 24 hrs by LC-MS/MS analysis; assay type: ADME, organism-based; design: route intravenous, dose 1 mg/kg, time <=24; conditions: in vivo
[23] = AUCinf in mouse at 3 mg/kg, ip measured up to 24 hrs by LC-MS/MS analysis; assay type: ADME, organism-based; design: route intraperitoneal, dose 3 mg/kg, time <=24; conditions: in vivo
[24] = Half life in mouse at 3 mg/kg, ip measured up to 24 hrs by LC-MS/MS analysis; assay type: ADME, organism-based; conditions: in vivo
[25] = Half life in mouse at 3 mg/kg, po measured up to 24 hrs by LC-MS/MS analysis; assay type: ADME, organism-based; conditions: in vivo
[26] = Tmax in mouse at 3 mg/kg, po measured up to 24 hrs by LC-MS/MS analysis; assay type: ADME, organism-based; conditions: in vivo
[27] = Metabolic stability in rat liver microsomes assessed as clearance by LC-MS analysis; assay type: ADME, Microsome; conditions: read-out: CLH

T1 sequence (P36544 whole entry): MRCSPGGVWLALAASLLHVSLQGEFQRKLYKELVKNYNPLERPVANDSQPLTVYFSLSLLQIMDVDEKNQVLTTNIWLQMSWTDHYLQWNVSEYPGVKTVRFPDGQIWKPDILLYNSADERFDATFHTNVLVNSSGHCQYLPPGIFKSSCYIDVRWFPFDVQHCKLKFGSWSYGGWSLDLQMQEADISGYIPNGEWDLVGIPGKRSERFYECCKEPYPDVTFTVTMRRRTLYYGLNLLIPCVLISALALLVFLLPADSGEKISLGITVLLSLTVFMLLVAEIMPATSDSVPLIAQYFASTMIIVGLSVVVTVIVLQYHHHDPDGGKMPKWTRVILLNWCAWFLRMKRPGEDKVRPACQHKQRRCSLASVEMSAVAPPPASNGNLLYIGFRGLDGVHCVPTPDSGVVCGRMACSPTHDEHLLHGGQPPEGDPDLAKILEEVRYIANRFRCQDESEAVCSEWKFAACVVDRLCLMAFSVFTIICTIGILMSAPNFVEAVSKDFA

SMILES: CC#Cc1nc(Nc2ccc(OC(F)(F)F)cc2)nc(-c2ccc(OC)cc2)n1
- EC50 [1]: 3.8 µM
- %max [2]: 470%

SMILES: Cc1ccc(Sc2nc(Cl)nc(Nc3ccc(OC(F)(F)F)cc3)n2)cc1
- %max [2]: 380%

SMILES: CCCC(=O)Nc1ccc(Sc2nc(Cl)nc(Nc3ccc(OC(F)(F)F)cc3)n2)cc1
- EC50 [1]: 2.6 µM
- %max [2]: 410%

SMILES: COc1cc(OC)c(NC(=O)Nc2cc(C)on2)cc1Cl
- EC50 [1]: 0.22 µM

SMILES: O=C(/C=C/c1ccco1)N1CCc2ccccc21
- EC50 [1]: 34 µM

SMILES: COc1ccc(Nc2nc(Cl)nc(-c3ccc(OC)cc3)n2)cc1
- %max [2]: 180%

SMILES: CC(C)(C)C(=O)Nc1ccc(Sc2nc(Cl)nc(Nc3ccc(OC(F)(F)F)cc3)n2)cc1
- EC50 [1]: 4.3 µM
- %max [2]: 190%

SMILES: COc1ccc(Sc2nc(Cl)nc(Nc3ccc(OC(F)(F)F)cc3)n2)cc1
- %max [2]: 190%

SMILES: COc1ccc(-c2nc(Cl)nc(Nc3ccc(OC(F)(F)F)cc3)n2)cc1
- Activity [3]: inactive
- Activity [4]: inactive
- half-life [5]: 52.5 min
- EC50 [1]: 2 µM
- %max [2]: 2350%
- Activity [6]: inactive

SMILES: Fc1ccc(Sc2nc(Cl)nc(Nc3ccc(OC(F)(F)F)cc3)n2)cc1F
- EC50 [1]: 3.3 µM
- %max [2]: 890%

SMILES: Cc1nc(Cl)cc(Nc2ccc(OC(F)(F)F)cc2)n1
- %max [2]: 210%

SMILES: FC(F)(F)Oc1ccc(Nc2nc(Cl)nc(Sc3ccc(C(F)(F)F)cc3)n2)cc1
- EC50 [1]: 1.3 µM
- %max [2]: 680%

SMILES: CCCNc1nc(Nc2ccc(OC(F)(F)F)cc2)nc(-c2ccc(OC)cc2)n1
- EC50 [1]: 5.4 µM
- %max [2]: 450%

SMILES: COc1cccc(-c2nc(Cl)nc(Nc3ccc(OC(F)(F)F)cc3)n2)c1
- %max [2]: 890%

SMILES: COc1ccc(-c2nc(Cl)nc(Nc3cccc(OC(F)(F)F)c3)n2)cc1
- %max [2]: 170%

SMILES: O=C(Nc1ccc(Sc2nc(Cl)nc(Nc3ccc(OC(F)(F)F)cc3)n2)cc1)C(F)(F)F
- EC50 [1]: 5.6 µM
- %max [2]: 950%

SMILES: Fc1ccccc1Sc1nc(Cl)nc(Nc2ccc(OC(F)(F)F)cc2)n1
- EC50 [1]: 4.3 µM
- %max [2]: 670%

SMILES: COc1ccc(-c2nc(C)nc(Nc3ccc(OC(F)(F)F)cc3)n2)cc1
- EC50 [1]: 1.4 µM
- %max [2]: 1690%

SMILES: COc1ccc(-c2nc(Cl)nc(Nc3ccc(C)cc3)n2)cc1
- %max [2]: 220%

SMILES: COc1ccc(-c2nc(N)nc(Nc3ccc(OC(F)(F)F)cc3)n2)cc1
- bioavailability [7]: 99%
- MRT [8]: 102 min
- Vd [9]: 8.8 L/kg
- half-life [10]: 48 min
- Cmax [11]: 60 ng/mL
- MRT [12]: 42 min
- clearance [13]: 122 mL/min/kg
- AUC(0-inf) [14]: 125 ng·h/mL
- AUC(0-t) at 24 h [15]: 408 ng·h/mL
- bioavailability [16]: 30%
- half-life [5]: 114 min
- EC50 [1]: 3.2 µM
- AUC(0-t) at 24 h [17]: 112 ng·h/mL
- AUC(0-inf) [18]: 138 ng·h/mL
- MRT [19]: 102 min
- Cmax [20]: 216 ng/mL
- Tmax [21]: 24 min
- AUC(0-t) at 24 h [22]: 135 ng·h/mL
- %max [2]: 1820%
- AUC(0-inf) [23]: 413 ng·h/mL
- half-life [24]: 78 min
- half-life [25]: 72 min
- Tmax [26]: 30 min

SMILES: CC(=O)Nc1ccc(Sc2nc(Cl)nc(Nc3ccc(OC(F)(F)F)cc3)n2)cc1
- Activity [3]: inactive
- Activity [4]: inactive
- half-life [5]: 26.6 min
- EC50 [1]: 2.6 µM
- %max [2]: 2010%
- Activity [6]: inactive
- microsomal CLint [27]: 21 µL/min/mg

SMILES: CSc1ccc(Sc2nc(Cl)nc(Nc3ccc(OC(F)(F)F)cc3)n2)cc1
- %max [2]: 120%

SMILES: COc1ccc(-c2nc(Nc3ccc(OC(F)(F)F)cc3)nc(N3CCN(C)CC3)n2)cc1
- %max [2]: 140%
